Data from patent US12637473B2, “MDM2 protein degraders” (THE REGENTS OF THE UNIVERSITY OF MICHIGAN, priority 2016, dated 2026).
pIC50: −log10 of the molar value.

Legend:
MV4-11 cell line = test: CellTiter-Glo Luminescent Cell Viability Assay, cell growth inhibition; assay type: cell-based; conditions: Homo sapiens, 96 h, 4 days
Experimental: (§1) Cell growth inhibitory activity of representative MDM2 protein degraders was determined using CellTiter-Glo® Luminescent Cell Viability Assay. Cells were seeded in 384-well white opaque cell culture plates at a density of 2,000 cells/well with serially diluted compounds and incubated at 37° C. in an atmosphere of 95% air and 5% CO2 for 4 days. Cell viability was determined using the CellTiter-Glo® Luminescent Cell Viability Assay Kit (Promega, Madison, WI) according to the manufacture's instruction. Briefly, a volume of CellTiter-Glo® Reagent equal to the volume of cell culture medium was added to each well, and then the plates were incubated at room temperature for 10-20 minutes. The luminescent signal was measured using a Tecan Infinite M1000 multimode microplate reader (Tecan, Morrisville, NC). The half maximal inhibitory concentration (IC50) was calculated using the GraphPad Prism 5 software (GraphPad Software, La Jolla, CA). Cpd. […] The structure of Cpd.

RS4; 11 cell line = test: as above; assay type: cell-based; conditions: Homo sapiens, 96 h, 4 days
Experimental: as §1

pIC50 (MV4-11 cell line)	pIC50 (RS4; 11 cell line)	SMILES
8.30	8.15	O=C1CCC(N2C(=O)c3cccc(NCCOCCOCCNC(=O)c4ccc(NC(=O)[C@@H]5NC6(CCCCC6)[C@@]6(C(=O)Nc7cc(Cl)ccc76)[C@H]5c5cccc(Cl)c5F)nc4)c3C2=O)C(=O)N1 (stereo partly drawn) [Cpd. No. 24, (3′R,4'S,5′R)-6″-chloro-4′-(3-chloro-2-fluorophenyl)-N-(5-((2-(2-(2-((2-(2,6-dioxopiperidin-3-yl)-1,3-dioxoisoindolin-4-yl)amino)ethoxy)ethoxy)ethyl)carbamoyl)pyridin-2-yl)-2″-oxodispiro[cyclohexane-1,2′-pyrrolidine-3′,3″-indoline]-5′-carboxamide]
6.89	6.72	CCN1[C@@H](C(=O)NC23CCC(C(=O)NCCOCCOCCOCCOCC(=O)N[C@H](C(=O)N4C[C@H](O)C[C@H]4C(=O)NCc4ccc(-c5scnc5C)cc4)C(C)(C)C)(CC2)CC3)[C@H](c2cccc(Cl)c2F)[C@]2(C(=O)Nc3cc(Cl)ccc32)C12CCCCC2 [Cpd. No. 48, (3′R,4'S,5′R)-6″-chloro-4′-(3-chloro-2-fluorophenyl)-1′-ethyl-N-(4-(((S)-16-((2S,4R)-4-hydroxy-2-((4-(4-methylthiazol-5-yl)benzyl)carbamoyl)pyrrolidine-1-carbonyl)-17,17-dimethyl-14-oxo-3,6,9,12-tetraoxa-15-azaoctadecyl)carbamoyl)bicyclo[2.2.2]octan-1-yl)-2″-oxodispiro[cyclohexane-1,2′-pyrrolidine-3′,3″-indoline]-5′-carboxamide]
8.57	8.33	O=C1CCC(N2C(=O)c3cccc(NCCOCCOCCOCCOCCOCCOCCOCCNC(=O)c4ccc(NC(=O)[C@@H]5NC6(CCCCC6)[C@@]6(C(=O)Nc7cc(Cl)ccc76)[C@H]5c5cccc(Cl)c5F)cc4)c3C2=O)C(=O)N1 (stereo partly drawn) [Cpd. No. 16, (3′R,4'S,5′R)-6″-chloro-4′-(3-chloro-2-fluorophenyl)-N-(4-((23-((2-(2,6-dioxopiperidin-3-yl)-1,3-dioxoisoindolin-4-yl)amino)-3,6,9,12,15,18,21-heptaoxatricosyl)carbamoyl)phenyl)-2″-oxodispiro[cyclohexane-1,2′-pyrrolidine-3′,3″-indoline]-5′-carboxamide]
6.38	6.63	O=C(COc1cccc2c1C(=O)N(C1CCC(=O)NC1=O)C2=O)NCCCCNC(=O)c1ccc(NC(=O)[C@@H]2NC3(CCCCC3)[C@@]3(C(=O)Nc4cc(Cl)ccc43)[C@H]2c2cccc(Cl)c2F)cc1 (stereo partly drawn) [Cpd. No. 1, (3′R,4'S,5′R)-6″-chloro-4′-(3-chloro-2-fluorophenyl)-N-(4-((4-(2-((2-(2,6-dioxopiperidin-3-yl)-1,3-dioxoisoindolin-4-yl)oxy)acetamido)butyl)carbamoyl)phenyl)-2″-oxodispiro[cyclohexane-1,2′-pyrrolidine-3′,3″-indoline]-5′-carboxamide]
	7.00	O=C1CCC(N2C(=O)c3cccc(NCCCCCCCNC(=O)c4ccc(NC(=O)[C@@H]5NC6(CCCCC6)[C@@]6(C(=O)Nc7cc(Cl)ccc76)[C@H]5c5cccc(Cl)c5F)cc4)c3C2=O)C(=O)N1 (stereo partly drawn) [Cpd. No. 12, (3′R,4'S,5′R)-6″-chloro-4′-(3-chloro-2-fluorophenyl)-N-(4-((7-((2-(2,6-dioxopiperidin-3-yl)-1,3-dioxoisoindolin-4-yl)amino)heptyl)carbamoyl)phenyl)-2″-oxodispiro[cyclohexane-1,2′-pyrrolidine-3′,3″-indoline]-5′-carboxamide]
	7.01	CC(C)[C@@H](CS(=O)(=O)C(C)C)N1C(=O)[C@@](C)(CC(=O)NCCCOCCOCCOCCCNc2cccc3c2C(=O)N(C2CCC(=O)NC2=O)C3=O)C[C@H](c2cccc(Cl)c2)[C@H]1c1ccc(Cl)cc1 (stereo partly drawn) [Cpd. No. 61, 2-((3R,5R,6S)-5-(3-chlorophenyl)-6-(4-chlorophenyl)-1-((S)-1-(isopropylsulfonyl)-3-methylbutan-2-yl)-3-methyl-2-oxopiperidin-3-yl)-N-(3-(2-(2-(3-((2-(2,6-dioxopiperidin-3-yl)-1,3-dioxoisoindolin-4-yl)amino)propoxy)ethoxy)ethoxy)propyl)acetamide]
	6.39	CC(C)[C@@H](CS(=O)(=O)C(C)C)N1C(=O)[C@@](C)(CC(=O)NCCOCCOCCNc2cccc3c2C(=O)N(C2CCC(=O)NC2=O)C3=O)C[C@H](c2cccc(Cl)c2)[C@H]1c1ccc(Cl)cc1 (stereo partly drawn) [Cpd. No. 60, 2-((3R,5R,6S)-5-(3-chlorophenyl)-6-(4-chlorophenyl)-1-((S)-1-(isopropylsulfonyl)-3-methylbutan-2-yl)-3-methyl-2-oxopiperidin-3-yl)-N-(2-(2-(2-((2-(2,6-dioxopiperidin-3-yl)-1,3-dioxoisoindolin-4-yl)amino)ethoxy)ethoxy)ethyl)acetamide]
	7.82	O=C1CCC(N2Cc3c(NC(=O)CCOCCOCCNC(=O)c4ccc(NC(=O)[C@@H]5NC6(CCCCC6)[C@@]6(C(=O)Nc7cc(Cl)ccc76)[C@H]5c5cccc(Cl)c5F)cc4)cccc3C2=O)C(=O)N1 (stereo partly drawn) [Cpd. No. 29, (3′R,4'S,5′R)-6″-chloro-4′-(3-chloro-2-fluorophenyl)-N-(4-((2-(2-(3-((2-(2,6-dioxopiperidin-3-yl)-1-oxoisoindolin-4-yl)amino)-3-oxopropoxy)ethoxy)ethyl)carbamoyl)phenyl)-2″-oxodispiro[cyclohexane-1,2′-pyrrolidine-3′,3″-indoline]-5′-carboxamide]
	8.24	O=C1CCC(N2Cc3c(CCCOCCOCCNC(=O)c4ccc(NC(=O)[C@@H]5NC6(CCCCC6)[C@@]6(C(=O)Nc7cc(Cl)ccc76)[C@H]5c5cccc(Cl)c5F)cc4)cccc3C2=O)C(=O)N1 (stereo partly drawn) [Cpd. No. 35, (3′R,4'S,5′R)-6″-chloro-4′-(3-chloro-2-fluorophenyl)-N-(4-((2-(2-(3-(2-(2,6-dioxopiperidin-3-yl)-1-oxoisoindolin-4-yl)propoxy)ethoxy)ethyl)carbamoyl)phenyl)-2″-oxodispiro[cyclohexane-1,2′-pyrrolidine-3′,3″-indoline]-5′-carboxamide]
	7.89	O=C1CCC(N2Cc3c(NC(=O)CCOCCOCCOCCNC(=O)c4ccc(NC(=O)[C@@H]5NC6(CCCCC6)[C@@]6(C(=O)Nc7cc(Cl)ccc76)[C@H]5c5cccc(Cl)c5F)cc4)cccc3C2=O)C(=O)N1 (stereo partly drawn) [Cpd. No. 30, (3′R,4'S,5′R)-6″-chloro-4′-(3-chloro-2-fluorophenyl)-N-(4-((2-(2-(2-(3-((2-(2,6-dioxopiperidin-3-yl)-1-oxoisoindolin-4-yl)amino)-3-oxopropoxy)ethoxy)ethoxy)ethyl)carbamoyl)phenyl)-2″-oxodispiro[cyclohexane-1,2′-pyrrolidine-3′,3″-indoline]-5′-carboxamide]
	7.64	O=C1CCC(N2C(=O)c3cccc(CCCCCNC(=O)c4ccc(NC(=O)[C@@H]5NC6(CCCCC6)[C@@]6(C(=O)Nc7cc(Cl)ccc76)[C@H]5c5cccc(Cl)c5F)cc4)c3C2=O)C(=O)N1 (stereo partly drawn) [Cpd. No. 32, (3′R,4'S,5′R)-6″-chloro-4′-(3-chloro-2-fluorophenyl)-N-(4-((5-(2-(2,6-dioxopiperidin-3-yl)-1,3-dioxoisoindolin-4-yl)pentyl)carbamoyl)phenyl)-2″-oxodispiro[cyclohexane-1,2′-pyrrolidine-3′,3″-indoline]-5′-carboxamide]
	8.15	O=C1CCC(N2Cc3c(NC(=O)CCCCNC(=O)c4ccc(NC(=O)[C@@H]5NC6(CCCCC6)[C@@]6(C(=O)Nc7cc(Cl)ccc76)[C@H]5c5cccc(Cl)c5F)cc4)cccc3C2=O)C(=O)N1 (stereo partly drawn) [Cpd. No. 28, (3′R,4'S,5′R)-6″-chloro-4′-(3-chloro-2-fluorophenyl)-N-(4-((5-((2-(2,6-dioxopiperidin-3-yl)-1-oxoisoindolin-4-yl)amino)-5-oxopentyl)carbamoyl)phenyl)-2″-oxodispiro[cyclohexane-1,2′-pyrrolidine-3′,3″-indoline]-5′-carboxamide]
	8.28	CC1(C)CCC2(CC1)N[C@@H](C(=O)Nc1ccc(C(=O)NCCCOCCOCCOCCCNc3cccc4c3C(=O)N(C3CCC(=O)NC3=O)C4=O)cc1)[C@H](c1cccc(Cl)c1F)[C@]21C(=O)Nc2cc(Cl)ccc21 (stereo partly drawn) [Cpd. No. 53, (3′R,4'S,5′R)-6″-chloro-4′-(3-chloro-2-fluorophenyl)-N-(4-((3-(2-(2-(3-((2-(2,6-dioxopiperidin-3-yl)-1,3-dioxoisoindolin-4-yl)amino)propoxy)ethoxy)ethoxy)propyl)carbamoyl)phenyl)-4,4-dimethyl-2″-oxodispiro[cyclohexane-1,2′-pyrrolidine-3′,3″-indoline]-5′-carboxamide]
	8.42	O=C1CCC(N2Cc3c(CCCOCCOCCOCCNC(=O)c4ccc(NC(=O)[C@@H]5NC6(CCCCC6)[C@@]6(C(=O)Nc7cc(Cl)ccc76)[C@H]5c5cccc(Cl)c5F)cc4)cccc3C2=O)C(=O)N1 (stereo partly drawn) [Cpd. No. 37, (3′R,4'S,5′R)-6″-chloro-4′-(3-chloro-2-fluorophenyl)-N-(4-((2-(2-(2-(3-(2-(2,6-dioxopiperidin-3-yl)-1-oxoisoindolin-4-yl)propoxy)ethoxy)ethoxy)ethyl)carbamoyl)phenyl)-2″-oxodispiro[cyclohexane-1,2′-pyrrolidine-3′,3″-indoline]-5′-carboxamide]

SMILES	pIC50 (MV4-11 cell line)	pIC50 (RS4; 11 cell line)
Cc1ncsc1-c1ccc(CNC(=O)[C@@H]2C[C@@H](O)CN2C(=O)[C@@H](NC(=O)CCOCCOCCNC(=O)c2ccc(NC(=O)[C@@H]3NC4(CCCCC4)[C@@]4(C(=O)Nc5cc(Cl)ccc54)[C@H]3c3cccc(Cl)c3F)cc2)C(C)(C)C)cc1 [compound 42]		6.17
